From US20110212997A1, “PIPERIDINE-4-ACETAMIDE DERIVATIVES AND THEIR USE AS MONOAMINE NEUROTRANSMITTER RE-UPTAKE INHIBITORS” (NEUROSEARCH A/S, priority 2008, published 2011)
Counter-ions that a name gives are not always drawn. Like-named read-outs stand apart in the source and are kept apart here.

Experiments:
[1] = target: T1, serotonine (5-HT) reuptake in synaptosomes (Rattus norvegicus, UniProt P31652); test: Inhibition of 5-HT reuptake in synaptosomes; format: biochemical; details: 3H-5-HT, read-out: 5-HT-uptake IC50
T1 construct: serotonine (5-HT) in synaptosomes as described in WO 97/16451; from tissue
T1 sequence (P31652 whole entry): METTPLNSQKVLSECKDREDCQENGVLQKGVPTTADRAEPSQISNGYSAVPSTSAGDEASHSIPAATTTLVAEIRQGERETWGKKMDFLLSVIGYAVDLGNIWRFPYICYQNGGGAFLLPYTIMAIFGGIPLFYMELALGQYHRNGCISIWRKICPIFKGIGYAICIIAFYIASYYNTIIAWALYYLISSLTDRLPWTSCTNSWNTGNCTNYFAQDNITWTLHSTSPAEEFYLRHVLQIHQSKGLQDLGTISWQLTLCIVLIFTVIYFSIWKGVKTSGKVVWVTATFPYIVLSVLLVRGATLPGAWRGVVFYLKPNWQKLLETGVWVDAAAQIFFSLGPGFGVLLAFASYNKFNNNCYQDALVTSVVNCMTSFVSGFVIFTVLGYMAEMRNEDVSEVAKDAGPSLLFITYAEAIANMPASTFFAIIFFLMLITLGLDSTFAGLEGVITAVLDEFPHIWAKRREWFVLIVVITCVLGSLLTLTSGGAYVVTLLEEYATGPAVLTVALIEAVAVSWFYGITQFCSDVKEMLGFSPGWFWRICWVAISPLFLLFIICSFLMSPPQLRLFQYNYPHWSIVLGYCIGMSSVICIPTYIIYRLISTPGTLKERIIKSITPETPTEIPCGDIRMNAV
Method: (§1) Compounds were tested for their ability to inhibit the reuptake of the monoamine neurotransmitters dopamine (DA) noradrenaline (NA) and serotonine (5-HT) in synaptosomes as described in WO 97/16451 (NeuroSearch NS).
(§2) The test values are given as IC50 (the concentration (μM) of the test substance which inhibits the specific binding of ^3H-DA, ^3H-NA, or ^3H-5-HT by 50%).

[2] = target: T2, dopamine (DA) reuptake in synaptosomes (Rattus norvegicus, UniProt P23977); test: Inhibition of DA reuptake in synaptosomes; format: biochemical
T2 construct: in synaptosomes as described in WO 97/16451; from tissue
T2 sequence (P23977 whole entry): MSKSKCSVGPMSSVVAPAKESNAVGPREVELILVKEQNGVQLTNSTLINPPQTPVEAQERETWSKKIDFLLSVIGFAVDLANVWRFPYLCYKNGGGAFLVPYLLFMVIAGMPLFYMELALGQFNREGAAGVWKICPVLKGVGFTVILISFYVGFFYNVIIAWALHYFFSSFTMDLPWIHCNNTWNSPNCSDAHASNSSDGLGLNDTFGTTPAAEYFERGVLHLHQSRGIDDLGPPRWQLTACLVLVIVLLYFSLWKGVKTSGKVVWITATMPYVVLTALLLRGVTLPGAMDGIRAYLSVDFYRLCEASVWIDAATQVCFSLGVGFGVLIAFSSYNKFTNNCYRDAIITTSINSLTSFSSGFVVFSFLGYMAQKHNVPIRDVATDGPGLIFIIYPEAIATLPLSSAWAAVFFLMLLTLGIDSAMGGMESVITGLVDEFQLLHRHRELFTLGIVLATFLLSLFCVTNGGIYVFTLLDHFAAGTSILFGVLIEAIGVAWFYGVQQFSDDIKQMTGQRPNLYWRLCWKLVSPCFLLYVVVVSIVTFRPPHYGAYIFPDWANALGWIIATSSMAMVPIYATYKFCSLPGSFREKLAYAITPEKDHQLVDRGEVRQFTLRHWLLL
Method: as §1, §2

[3] = target: T3, noradrenaline (NA) reuptake in synaptosomes (Rattus norvegicus, UniProt Q63380); test: Inhibition of NA reuptake in synaptosomes; format: biochemical
T3 construct: in synaptosomes as described in WO 97/16451; from tissue
T3 sequence (Q63380 1-617): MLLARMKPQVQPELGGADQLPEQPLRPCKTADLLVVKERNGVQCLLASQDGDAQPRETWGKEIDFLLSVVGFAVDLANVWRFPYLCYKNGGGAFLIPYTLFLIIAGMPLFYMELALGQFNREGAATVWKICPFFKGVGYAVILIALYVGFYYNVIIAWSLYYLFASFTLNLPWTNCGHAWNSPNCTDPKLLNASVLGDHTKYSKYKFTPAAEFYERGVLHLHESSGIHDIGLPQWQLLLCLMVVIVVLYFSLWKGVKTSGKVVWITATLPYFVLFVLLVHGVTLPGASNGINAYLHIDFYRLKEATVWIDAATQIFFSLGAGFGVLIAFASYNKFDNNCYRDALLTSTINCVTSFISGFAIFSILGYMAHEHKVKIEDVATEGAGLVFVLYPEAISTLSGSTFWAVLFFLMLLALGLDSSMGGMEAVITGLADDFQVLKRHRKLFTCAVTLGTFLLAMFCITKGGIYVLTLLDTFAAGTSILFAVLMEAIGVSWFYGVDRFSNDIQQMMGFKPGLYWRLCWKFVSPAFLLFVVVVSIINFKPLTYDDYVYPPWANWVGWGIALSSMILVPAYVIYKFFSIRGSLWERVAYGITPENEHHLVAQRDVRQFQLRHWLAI
Method: as §1, §2

[4] = synaptosomes, 3H-DA, read-out: DA-uptake IC50
[5] = synaptosomes, 3H-NA, read-out: NA-uptake IC50

SMILES	melting point	IC50 [1]	IC50 [2, 4]	IC50 [3, 5]	IC50 [2]	IC50 [3]
CCN(C(=O)CC1CCNCC1)c1cc(Cl)ccc1Cl (as salt: fumaric acid salt) [Compound C7, N-(2,5-Dichloro-phenyl)-N-ethyl-2-piperidin-4-yl-acetamide]	190 to 192 °C	–	–	–	–	–
CCN(C(=O)CC1CCNCC1)c1c(Cl)cccc1Cl (as salt: fumaric acid salt) [Compound C8, N-(2,6-Dichloro-phenyl)-N-ethyl-2-piperidin-4-yl-acetamide]	167 to 169 °C	–	–	–	–	–
CCN(C(=O)CC1CCNCC1)c1cc(Cl)cc(Cl)c1 (as salt: fumaric acid salt) [Compound C9, N-(3,5-Dichloro-phenyl)-N-ethyl-2-piperidin-4-yl-acetamide]	151 to 153 °C	–	–	–	–	–
CN(C(=O)CC1CCNCC1)c1ccc(Cl)c(Cl)c1 [Compound B1, N-(3,4-Dichloro-phenyl)-N-methyl-2-piperidin-4-yl-acetamide]	–	280 nM	230 nM	120 nM	–	–
CCN(C(=O)CC1CCNCC1)c1ccc(Cl)c(Cl)c1 [Compound C1, N-(3,4-Dichloro-phenyl)-N-ethyl-2-piperidin-4-yl-acetamide]	–	1500 nM	15 nM	6.6 nM	–	–
O=C(CC1CCNCC1)Nc1ccc(Cl)c(Cl)c1 [Compound C2, N-(3,4-Dichloro-phenyl)-2-piperidin-4-yl-acetamide]	–	23 nM	> 1000 nM	> 1000 nM	–	–
CCN(C(=O)CC1CCNCC1)c1ccc(Cl)cc1 [Compound C3, N-(4-Chloro-phenyl)-N-ethyl-2-piperidin-4-yl-acetamide]	–	> 1000 nM	450 nM	770 nM	–	–
CCN(C(=O)CC1CCNCC1)c1cccc(Cl)c1 [Compound C4, N-(3-Chloro-phenyl)-N-ethyl-2-piperidin-4-yl-acetamide]	–	> 1000 nM	600 nM	460 nM	–	–
CCN(C(=O)CC1CCNCC1)c1cccc2ccccc12 [Compound C5, N-Ethyl-N-naphthalen-1-yl-2-piperidin-4-yl-acetamide]	–	> 1000 nM	> 1000 nM	600 nM	–	–
CCN(C(=O)CC1CCNCC1)c1cccc(Cl)c1Cl [Compound C6, N-(2,3-Dichloro-phenyl)-N-ethyl-2-piperidin-4-yl-acetamide]	–	> 1000 nM	> 1000 nM	910 nM	–	–
CCN(C(=O)CC1CCNCC1)c1cc(Cl)ccc1Cl [Compound C7, N-(2,5-Dichloro-phenyl)-N-ethyl-2-piperidin-4-yl-acetamide]	–	> 1000 nM	2600 nM	1500 nM	–	–
CCN(C(=O)CC1CCNCC1)c1c(Cl)cccc1Cl [Compound C8, N-(2,6-Dichloro-phenyl)-N-ethyl-2-piperidin-4-yl-acetamide]	–	> 1000 nM	> 1000 nM	2700 nM	–	–
CCN(C(=O)CC1CCNCC1)c1cc(Cl)cc(Cl)c1 [Compound C9, N-(3,5-Dichloro-phenyl)-N-ethyl-2-piperidin-4-yl-acetamide]	–	> 1000 nM	1900 nM	670 nM	–	–
CCN(C(=O)CC1CCNCC1)c1ccc(Cl)c(Cl)c1Cl [Compound C10, N-Ethyl-2-piperidin-4-yl-N-(2,3,4-trichloro-phenyl)-acetamide]	–	1400 nM	630 nM	120 nM	–	–
CCN(C(=O)CC1CCNCC1)c1ccc(Br)c(Br)c1 [Compound C11, N-(3,4-Dibromo-phenyl)-N-ethyl-2-piperidin-4-yl-acetamide]	–	610 nM	2.2 nM	1.2 nM	–	–
CCCN(C(=O)CC1CCNCC1)c1ccc(Cl)c(Cl)c1 [Compound C12, N-(3,4-Dichloro-phenyl)-2-piperidin-4-yl-N-propyl-acetamide]	–	880 nM	12 nM	5.2 nM	–	–
CCN(C(=O)CC1CCNCC1)c1ccc(Cl)c(Br)c1 [Compound C13, N-(3-Bromo-4-chloro-phenyl)-N-ethyl-2-piperidin-4-yl-acetamide]	–	1200 nM	8 nM	1.3 nM	–	–
CCCN1CCC(CC(=O)N(CC)c2ccc(Cl)c(Cl)c2)CC1 [Compound D9, N-(3,4-Dichloro-phenyl)-N-ethyl-2-(1-propykpiperidin-4-yl)-acetamide]	–	780 nM	–	–	12 nM	3.8 nM

Second part, led by results:

melting point	IC50 [1]	IC50 [2, 4]	IC50 [3, 5]	SMILES	IC50 [2]	IC50 [3]
–	1400 nM	20 nM	4.4 nM	CCN(C(=O)CC1CCN(C)CC1)c1ccc(Cl)c(Cl)c1 [Compound D1, N-(3,4-Dichloro-phenyl)-N-ethyl-2-(1-methyl-piperidin-4-yl)-acetamide]	–	–
–	> 1000 nM	970 nM	390 nM	CCN(C(=O)CC1CCN(C)CC1)c1ccc(Cl)cc1 [Compound D2, N-(4-Chloro-phenyl)-N-ethyl-2-(1-methyl-piperidin-4-yl)-acetamide]	–	–
–	> 1000 nM	> 1000 nM	1700 nM	CCN(C(=O)CC1CCN(C)CC1)c1cccc2ccccc12 [Compound D3, N-Ethyl-2-(1-methyl-piperidin-4-yl)-N-naphthalen-1-yl-acetamide]	–	–
–	2100 nM	8.6 nM	2.6 nM	CCN(C(=O)CC1CCNCC1)c1ccc(Br)c(Cl)c1 [Compound D4, N-(4-Bromo-3-chloro-phenyl)-N-ethyl-2-piperidin-4-yl-acetamide]	–	–
–	> 1000 nM	> 1000 nM	> 1000 nM	CCN(C(=O)CC1CCNCC1)c1ccc(Cl)cc1Cl [Compound D5, N-(2,4-Dichloro-phenyl)-N-ethyl-2-piperidin-4-yl-acetamide]	–	–
–	> 1000 nM	> 1000 nM	> 1000 nM	CN1CCC(CC(=O)Nc2ccc(Cl)c(Cl)c2)CC1 [Compound D6, N-(3,4-Dichloro-phenyl)-2-(1-methyl-piperidin-4-yl)-acetamide]	–	–
–	> 1000 nM	970 nM	350 nM	CCN(C(=O)CC1CCN(C)CC1)c1cccc(Cl)c1 [Compound D7, N-(3-Chloro-phenyl)-N-ethyl-2-(1-methyl-piperidin-4-yl)-acetamide]	–	–
–	> 1000 nM	> 1000 nM	> 1000 nM	CCN(C(=O)CC1CCN(C)CC1)c1cccc(Cl)c1Cl [Compound D8, N-(2,3-Dichloro-phenyl)-N-ethyl-2-(1-methyl-piperidin-4-yl)-acetamide]	–	–
–	1200 nM	31 nM	7.7 nM	CCN(C(=O)CC1CCN(C(C)C)CC1)c1ccc(Cl)c(Cl)c1 [Compound D10, N-(3,4-Dichloro-phenyl)-N-ethyl-2-(1-isopropyl-piperidin-4-yl)-acetamide]	–	–
–	870 nM	13 nM	3.2 nM	CCN1CCC(CC(=O)N(CC)c2ccc(Cl)c(Cl)c2)CC1 [Compound D11, N-(3,4-Dichloro-phenyl)-N-ethyl-2-(1-ethyl-piperidin-4-yl)-acetamide]	–	–
–	> 1000 nM	160 nM	69 nM	CN1CCC(CC(=O)N(C)c2ccc(Cl)c(Cl)c2)CC1 [Compound D12, N-(3,4-Dichloro-phenyl)-N-methyl-2-(1-methyl-piperidin-4-yl)-acetamide]	–	–
–	1500 nM	16 nM	2.7 nM	CCN(C(=O)CC1CCN(C)CC1)c1ccc(Br)c(Cl)c1 [Compound D13, N-(4-Bromo-3-chloro-phenyl)-N-ethyl-2-(1-methyl-piperidin-4-yl)-acetamide]	–	–
–	> 1000 nM	2500 nM	960 nM	CCN(C(=O)CC1CCN(C)CC1)c1ccc(Cl)cc1Cl [Compound D14, N-(2,4-Dichloro-phenyl)-N-ethyl-2-(1-methyl-piperidin-4-yl)-acetamide]	–	–
–	> 1000 nM	1700 nM	860 nM	CCN(C(=O)CC1CCN(C)CC1)c1cc(Cl)ccc1Cl [Compound D15, N-(2,5-Dichloro-phenyl)-N-ethyl-2-(1-methyl-piperidin-4-yl)-acetamide]	–	–
–	> 1000 nM	> 1000 nM	> 1000 nM	CCN(C(=O)CC1CCN(C)CC1)c1c(Cl)cccc1Cl [Compound D16, N-(2,6-Dichloro-phenyl)-N-ethyl-2-(1-methyl-piperidin-4-yl)-acetamide]	–	–
–	> 1000 nM	> 1000 nM	1800 nM	CCN(C(=O)CC1CCN(C)CC1)c1cc(Cl)cc(Cl)c1 [Compound D17, N-(3,5-Dichloro-phenyl)-N-ethyl-2-(1-methyl-piperidin-4-yl)-acetamide]	–	–
–	2100 nM	–	81 nM	CCN(C(=O)CC1CCN(C)CC1)c1ccc(Cl)c(Cl)c1Cl [Compound D18, N-Ethyl-2-(1-methyl-piperidin-4-yl)-N-(2,3,4-trichloro-phenyl)-acetamide]	–	–
–	680 nM	3.6 nM	1.1 nM	CCN(C(=O)CC1CCN(C)CC1)c1ccc(Br)c(Br)c1 [Compound D19, N-(3,4-Dibromo-phenyl)-N-ethyl-2-(1-methyl-piperidin-4-yl)-acetamide]	–	–
–	700 nM	12 nM	3.4 nM	CCCN(C(=O)CC1CCN(C)CC1)c1ccc(Cl)c(Cl)c1 [Compound D20, N-(3,4-Dichloro-phenyl)-2-(1-methyl-piperidin-4-yl)-N-propyl-acetamide]	–	–
–	1200 nM	12 nM	2.3 nM	CCN(C(=O)CC1CCN(C)CC1)c1ccc(Cl)c(Br)c1 [Compound D21, N-(3-Bromo-4-chloro-phenyl)-N-ethyl-2-(1-methyl-piperidin-4-yl)-acetamide]	–	–
